The results in this text go back to patent US20110150914A1, “COMPOSITIONS AND METHODS FOR DENGUE VIRUS (DV) TREATMENT AND VACCINATION” (priority 2008, published 2011).

Ends that are not written are not given here.

The subject of assay [1] is CD8^+ T cells. Kind of assay: Intracellular cytokine staining (IFN-γ), splenocytes of S221-infected IFN-α/βR^−/− mice. It is filed as cell-based. Conditions: day 7 after 10^10 GE S221. On the procedure: All Ab were purchased from eBioscience with the exception of anti-CD8α-PerCP and anti-CD107a-FITC which were obtained from BD Biosciences. RBC in blood were lysed using RBC lysis buffer (eBioscience). For surface staining, splenocytes or blood cells were washed, incubated with supernatant from 2.4G2-producing hybridoma cells to block Fc receptors, and labeled with anti-CD8α-PerCP, anti-CD44-APC, and anti-CD62L-PE. For intracellular cytokine staining, 10^6 splenocytes or 10^5 blood cells were plated in 96-well U-bottom plates and stimulated with individual DENV peptides (0.1 μg/ml) in the presence of brefeldin A (GolgiPlug, BD Biosciences) for 5 h. For CD107a staining, CD107a-FITC (or rat IgG2a-FITC) was added to the wells at the same time as the peptide. Cells were washed, incubated with 2.4G2 supernatant, labeled with anti-CD8α-PerCP, fixed and permeabilized using the BD Cytofix/Cytoperm Kit, and stained with anti-IFN-γ-APC and anti-TNF-α-PE. Samples were read on a FACS Caliber (BD Biosciences) and analyzed using FloJo software (Tree Star, Inc.)
The S221-specific CD8^+ T cell response in the IFN-α/βR^−/− mice was studied. […]
The S221-specific CD8^+ T cell response in IFN-α/βR^−/− mice was further studied. […] Referring to FIGS. 5C, 5E and 5F, the number of splenic CD8^+ T cells in naïve (n=4) and infected (n=7) mice was measured (results described above). […] The data are expressed as the percent±SEM of seven mice tested in three independent experiments.
The initial epitope identification studies were performed in wild-type mice. […] Cells were then stained for surface CD8 and intracellular IFN-γ and analyzed by flow cytometry. […] Results are expressed as the mean±SEM of 13 wild-type and 7 IFN-α/βR^−/− mice were tested in at least three independent experiments. Referring FIGS. 8C and D, the figures show kinetics of the DENV-specific CD8^+ T cell response as determined by the study. […]

The subject of assay [2] is CD8^+ T cells. Kind of assay: IFN-γ ELISPOT with CD8^+ T cells of DENV2-infected C57BL/6 mice. It is filed as cell-based. Conditions: PL046 or S221 infected C57BL/6 mice.
For assay [3], the target named is T1, purified H-2 D^b molecules (Mus musculus, UniProt P01899).
T1 construct: made in house
T1 sequence (P61769 21-119): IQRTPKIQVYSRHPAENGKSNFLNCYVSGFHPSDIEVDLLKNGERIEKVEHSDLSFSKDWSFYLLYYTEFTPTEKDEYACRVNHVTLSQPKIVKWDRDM
T1 sequence (P01899 25-362): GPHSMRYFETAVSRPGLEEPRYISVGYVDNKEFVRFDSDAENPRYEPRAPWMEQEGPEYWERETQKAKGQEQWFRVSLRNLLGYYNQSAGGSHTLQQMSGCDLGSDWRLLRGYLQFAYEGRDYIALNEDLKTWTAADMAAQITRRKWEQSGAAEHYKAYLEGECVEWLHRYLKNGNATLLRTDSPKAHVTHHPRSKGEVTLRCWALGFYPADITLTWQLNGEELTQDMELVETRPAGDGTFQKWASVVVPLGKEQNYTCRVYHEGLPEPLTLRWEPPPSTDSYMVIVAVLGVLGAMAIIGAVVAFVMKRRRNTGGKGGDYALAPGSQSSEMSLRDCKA
Kind of assay: MHC peptide-binding assay, purified H-2 D^b. Conditions: purified MHC, radiolabeled peptide competition; read-out: Binding affinity (IC50 nM) H2-D^b. How it is done: (§1) Briefly, 0.1-1 nM of radiolabeled peptide was co-incubated at room temperature with 1 μM to 1 nM of purified MHC in the presence of 1-3 μM human β2-microglobulin (Scripps Laboratories) and a mixture of protease inhibitors. After a 2 day incubation, binding of the radiolabeled peptide to the corresponding MHC class I molecule was determined by capturing MHC/peptide complexes on Lumitrac 600 microplates (Greiner Bio-One) coated with either the Y3 (anti-H-2 K^b) or 28-14-8S (anti-H-2 D^b, L^d and D^q) Ab, followed by measurement of bound counts per minute (cpm) using the TopCount microscintillation counter (Packard).

Assay [4] addresses T2, purified H-2 K^b molecules (Mus musculus, UniProt P01901).
T2 construct: made in house
Kind of assay: MHC peptide-binding assay, purified H-2 K^b. The following applies: purified MHC, radiolabeled peptide competition; read-out: Binding affinity (IC50 nM) H2-K^b. How it is done: as §1, with “MHC purification and quantitative assays to measure the binding affinity of peptides to purified H-2 K^b and H-2 D^b molecules were performed as previously described (Sidney et al., Curr Protoc Immunol 18:1813 2001); Vitiello et al., J Immunol 157:5555 (1996)). Briefly,” for “Briefly,”
To confirm the MHC class I restriction of the 12 identified epitopes, measurements were performed of their MHC binding capacity using purified K^b and D^b molecules in an in vitro binding assay. Seven of the 12 epitopes bound the predicted allele with either high or intermediate affinity, as indicated by an IC50 of <50 nM or <500 nM, respectively. The five remaining epitopes also bound with biologically relevant affinities in the 500-2000 nM range.

Assay [5] relates to DENV peptide-pulsed target cells. Kind of assay: In vivo cytotoxicity assay. Conditions: IFN-α/βR^−/− mice infected 7 days previously with 10^10 GE S221; 4 h after i.v. transfer; targets pulsed 0.5 μg/ml.

T2 sequence (P61769 21-119): as the sequence (P61769 21-119) above
T2 sequence (P01901 22-369): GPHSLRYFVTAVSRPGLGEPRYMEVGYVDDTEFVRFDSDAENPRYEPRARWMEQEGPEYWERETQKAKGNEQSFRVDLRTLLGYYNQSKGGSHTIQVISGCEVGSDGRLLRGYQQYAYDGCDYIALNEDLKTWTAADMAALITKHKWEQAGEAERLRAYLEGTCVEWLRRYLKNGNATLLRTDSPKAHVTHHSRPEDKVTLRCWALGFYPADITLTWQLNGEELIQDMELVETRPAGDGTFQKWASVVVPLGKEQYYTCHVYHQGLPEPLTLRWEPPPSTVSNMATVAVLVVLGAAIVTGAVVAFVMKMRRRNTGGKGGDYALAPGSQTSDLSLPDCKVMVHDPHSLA

Consider YSQVNPITL [NS4B99-107], for which the “% of splenic CD8^+ T cells recognizing the peptide” value in assay [1] turned out to be 16.5%. Also, the “number of CD8^+ T cells producing IFN-γ (average)” value in assay [1] (spleen) is on record as 1.1×10^7 CD8^+ T cells. Moreover, the “IFN-γ ELISPOT response (net SFC per 10^6 CD8^+ T cells), in words” value in assay [2] is recorded as “highest responses”. The IC50 in assay [3] came to 1.3 nM; in assay [4], 1890 nM. Also, in assay [5], the “percentage killing of peptide-pulsed target cells” value is 85%.

As usually defined, the IC50 is the midpoint of a concentration-inhibition curve.
